Measurements as given in ChEMBL document CHEMBL1201862, “PubChem BioAssay data set” (2004).
The source made the active and inactive calls.

How the values were obtained:
Nonstructural protein 1 = Nonstructural protein 1 (Influenza A virus, UniProt Q194T2); type: functional, Influenza A virus (A/California/07/2009(H1N1))
[1] = viability loss in HeLa cells – cytotoxicity control for MgcRacGAP inhibitor project, dose response (AID 624300); type: functional
[2] = target: T1, Rac GTPase-activating protein 1 (Homo sapiens, UniProt Q9H0H5); assay: blockers of MgcRacGAP-driven Rac1 GTP hydrolysis – biochemical, ADP Hunter fluorescence, primary and confirmatory, confirmation (AID 624330); type: functional
T1 sequence (Q9H0H5 whole entry): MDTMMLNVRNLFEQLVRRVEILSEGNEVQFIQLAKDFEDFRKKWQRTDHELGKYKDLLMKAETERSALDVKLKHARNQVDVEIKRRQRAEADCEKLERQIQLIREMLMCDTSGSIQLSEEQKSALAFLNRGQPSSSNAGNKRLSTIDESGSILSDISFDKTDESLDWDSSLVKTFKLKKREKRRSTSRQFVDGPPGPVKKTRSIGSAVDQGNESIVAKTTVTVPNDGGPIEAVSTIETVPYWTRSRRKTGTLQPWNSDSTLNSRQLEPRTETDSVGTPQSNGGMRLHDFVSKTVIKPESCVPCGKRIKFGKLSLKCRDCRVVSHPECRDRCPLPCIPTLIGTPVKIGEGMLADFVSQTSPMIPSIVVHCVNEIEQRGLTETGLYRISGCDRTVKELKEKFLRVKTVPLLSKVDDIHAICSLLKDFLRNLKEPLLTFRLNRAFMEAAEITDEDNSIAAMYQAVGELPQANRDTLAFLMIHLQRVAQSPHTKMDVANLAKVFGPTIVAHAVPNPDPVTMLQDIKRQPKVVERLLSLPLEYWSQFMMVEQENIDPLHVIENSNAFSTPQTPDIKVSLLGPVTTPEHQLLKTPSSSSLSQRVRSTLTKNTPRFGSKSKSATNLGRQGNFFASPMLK

[3] = target: T2, DNA repair protein RAD52 homolog (Homo sapiens, UniProt P43351); type: functional, biochemical
T2 sequence (P43351 whole entry): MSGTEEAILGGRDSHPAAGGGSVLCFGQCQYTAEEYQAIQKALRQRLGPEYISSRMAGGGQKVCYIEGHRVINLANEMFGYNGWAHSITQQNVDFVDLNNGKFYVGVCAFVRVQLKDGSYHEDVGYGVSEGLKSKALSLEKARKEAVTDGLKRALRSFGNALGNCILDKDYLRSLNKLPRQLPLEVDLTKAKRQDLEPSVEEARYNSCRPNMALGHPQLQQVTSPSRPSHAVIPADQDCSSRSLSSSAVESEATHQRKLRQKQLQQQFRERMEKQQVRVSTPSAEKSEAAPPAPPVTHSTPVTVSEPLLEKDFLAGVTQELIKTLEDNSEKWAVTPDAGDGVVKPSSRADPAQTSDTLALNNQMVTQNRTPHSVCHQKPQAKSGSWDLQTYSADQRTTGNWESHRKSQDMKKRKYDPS

[4] = target: T3, Histone-lysine N-methyltransferase NSD2 (Homo sapiens, UniProt O96028); type: biochemical
T3 sequence (O96028 whole entry): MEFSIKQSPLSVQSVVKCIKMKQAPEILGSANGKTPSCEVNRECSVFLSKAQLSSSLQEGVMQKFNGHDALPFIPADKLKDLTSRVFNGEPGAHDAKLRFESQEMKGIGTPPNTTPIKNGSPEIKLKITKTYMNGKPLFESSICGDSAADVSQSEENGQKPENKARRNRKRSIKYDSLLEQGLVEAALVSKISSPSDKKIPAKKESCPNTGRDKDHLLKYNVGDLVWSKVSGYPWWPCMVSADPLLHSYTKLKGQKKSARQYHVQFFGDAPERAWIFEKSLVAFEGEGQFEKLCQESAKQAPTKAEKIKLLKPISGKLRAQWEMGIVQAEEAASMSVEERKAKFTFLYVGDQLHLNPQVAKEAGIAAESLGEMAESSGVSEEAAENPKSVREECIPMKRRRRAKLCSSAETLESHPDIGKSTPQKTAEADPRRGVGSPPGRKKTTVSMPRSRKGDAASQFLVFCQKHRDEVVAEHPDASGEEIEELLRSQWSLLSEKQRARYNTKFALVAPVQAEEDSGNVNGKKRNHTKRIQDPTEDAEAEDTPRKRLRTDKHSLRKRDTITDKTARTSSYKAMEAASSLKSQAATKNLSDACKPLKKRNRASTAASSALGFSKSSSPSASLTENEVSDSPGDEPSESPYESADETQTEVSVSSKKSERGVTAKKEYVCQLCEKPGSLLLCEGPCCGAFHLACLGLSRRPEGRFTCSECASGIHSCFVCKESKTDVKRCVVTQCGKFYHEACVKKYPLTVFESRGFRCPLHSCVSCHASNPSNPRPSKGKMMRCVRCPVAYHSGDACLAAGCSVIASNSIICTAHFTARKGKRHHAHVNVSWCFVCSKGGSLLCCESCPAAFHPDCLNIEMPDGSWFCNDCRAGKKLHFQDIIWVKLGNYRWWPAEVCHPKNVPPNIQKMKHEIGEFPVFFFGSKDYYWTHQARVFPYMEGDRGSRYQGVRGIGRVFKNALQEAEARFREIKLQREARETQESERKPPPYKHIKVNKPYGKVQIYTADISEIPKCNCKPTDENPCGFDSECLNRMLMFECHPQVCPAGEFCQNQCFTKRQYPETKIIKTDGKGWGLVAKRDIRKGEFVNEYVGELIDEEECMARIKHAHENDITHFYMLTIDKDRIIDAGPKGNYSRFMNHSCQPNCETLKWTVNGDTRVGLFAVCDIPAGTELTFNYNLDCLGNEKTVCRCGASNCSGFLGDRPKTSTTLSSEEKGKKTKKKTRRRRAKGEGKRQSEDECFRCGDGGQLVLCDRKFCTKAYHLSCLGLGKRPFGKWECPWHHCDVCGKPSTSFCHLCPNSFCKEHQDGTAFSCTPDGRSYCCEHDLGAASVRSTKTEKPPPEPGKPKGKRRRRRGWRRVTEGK

[5] = HGIII-sPLA2 enzyme inhibition potency – biochemical, QFRET, IC50, dose response (AID 743457);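 also: green fluorescence rise as the enzyme cleaves BODIPY PC-A2 in liposomes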
[6] = A549 cell cytotoxicity, dose response, cytotoxicity control, plate reader, cherry-pick, antagonist series (AID 743412); type: functional, cell-based
[7] = blockers of bursicon-stimulated LGR2 cAMP reporter – cell-based, HEK293, CRE-luciferase reporter, cherry pick, set 2, dose response (AID 743343); type: functional;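 also: transfected cells were stimulated with diluted bursicon conditioned medium after compound addition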
[8] = blockade of melanocortin 4 receptor signaling – cell-based, plate reader, cherry pick, counter-screen for LGR2 antagonist project, dose response (AID 743444); type: functional;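 also: transfected HEK 293 cells stimulated with alpha-MSH peptide; potency of inhibitors of the alpha-MSH evoked signal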
[9] = viability loss in HepG2 hepatoma cells – cell-based, ATP luminescence, cherry-pick, activator set 2, cytotoxicity control, dose response (AID 1053143); type: functional
[10] = mouse fibroblast viability loss – cell-based, cherry-pick samples, set 2, cytotoxicity control for T. cruzi growth inhibitor project, dose response (AID 651817); type: functional; details: NIH3T3
[11] = blockers of HIV-1 envelope-mediated cell-cell fusion – cherry-pick, dose response (AID 652057); type: functional, cell-based
[12] = blockers of HIV-1 ZM109 envelope-driven cell-cell fusion – HeLa effector, CEM target cells, luciferase, cherry-pick, dose response (AID 652058); type: functional, cell-based;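 also: luciferase signal from HIV-1 Env mediated cell-cell fusion of effector and target cells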
Paired box protein Pax-8 = Paired box protein Pax-8 (Homo sapiens, UniProt Q06710); assay: PAX8 transcriptional activity inhibition in RMG-I – RMG-I cells, luciferase, cherry-pick, dose response (AID 687027); type: functional, cell-based;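 also: luciferase reporter driven by Pax8 target thyroperoxidase promoter measured by SteadyGlo luminescence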
Chain of Paired box protein Pax-8 (Q06710 whole entry, the tested form may be a part): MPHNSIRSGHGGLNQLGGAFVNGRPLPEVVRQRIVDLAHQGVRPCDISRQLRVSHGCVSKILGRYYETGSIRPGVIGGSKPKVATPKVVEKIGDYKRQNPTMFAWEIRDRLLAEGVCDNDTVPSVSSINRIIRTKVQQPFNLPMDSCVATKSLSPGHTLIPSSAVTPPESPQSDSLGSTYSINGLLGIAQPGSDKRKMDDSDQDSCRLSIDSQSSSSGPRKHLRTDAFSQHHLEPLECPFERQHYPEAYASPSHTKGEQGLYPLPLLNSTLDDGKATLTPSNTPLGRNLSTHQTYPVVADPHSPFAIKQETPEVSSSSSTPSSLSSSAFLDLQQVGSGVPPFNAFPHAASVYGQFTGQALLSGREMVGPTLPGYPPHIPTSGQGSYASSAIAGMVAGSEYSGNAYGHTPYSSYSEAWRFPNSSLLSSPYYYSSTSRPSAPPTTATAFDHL

[13] = HIV-1 AD8 envelope cell-cell fusion blockers – cherry-pick, dose response (AID 652062); type: functional, cell-based;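 also: luciferase signal from cell-cell fusion driven by HIV-1 clade B AD8 Env; potency is for inhibitors of fusion seen as a drop in luminescence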
[14] = A2780 cell killing – plate reader, dry powder samples, cytotoxicity control, dose response (AID 743046); type: functional, cell-based
[15] = OVCAR-3 cell viability loss – plate reader, dry powder samples, PAX8 inhibitor project, dose response (AID 743044); type: functional, cell-based
[16] = IGROV1 cell killing – plate reader, dry powder samples, PAX8 inhibitor project, dose response (AID 743043); type: functional, cell-based; details: IGROV-1
[17] = OVCAR8 cell viability loss – plate reader, dry powder samples, PAX8 project, dose response (AID 743197); type: functional, cell-based; details: OVCAR-8

Chain of Nonstructural protein 1 (Q194T2 whole entry): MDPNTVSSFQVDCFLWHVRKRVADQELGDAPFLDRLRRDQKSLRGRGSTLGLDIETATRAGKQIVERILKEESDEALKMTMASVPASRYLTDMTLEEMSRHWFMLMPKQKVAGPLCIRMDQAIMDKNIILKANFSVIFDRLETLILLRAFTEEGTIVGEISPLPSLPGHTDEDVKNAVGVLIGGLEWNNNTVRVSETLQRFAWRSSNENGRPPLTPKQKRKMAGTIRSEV

SMILES: CC[n+]1ccc(/C=C/c2ccc(N(C)C)cc2)c2ccccc21
- IC50 (Nonstructural protein 1): 9.07 µM (active)
- CC50 [1]: 49.2 µM (active)
- IC50 [2]: 36.1 µM (active)
- AC50 [3]: 2.21 µM (active)
- AC50 [4]: 13.4 µM (active)
- IC50 [5]: 24.6 µM (inactive)

SMILES: CN1c2ccc(-c3ccc(F)cc3)cc2[C@H]2[C@H](CCN2C(=O)Nc2ccc(F)cc2)[C@H]1CO
- AC50 [6]: 24.3 µM (active)
- AC50 [7]: 18.6 µM (active)
- AC50 [8]: 18.4 µM (active)

SMILES: Cc1cc2cc(CCNC(=O)c3cccs3)c(O)nc2cc1C
- AC50 [9]: 26 µM (active)

SMILES: CC(=O)C(=CNc1cc(-c2ccc(C)cc2)nn1-c1ccccc1)C(C)=O
- AC50 [9]: 26 µM (active)

SMILES: C[C@@H]1CN([C@@H](C)CO)C(=O)Cc2cc(NS(=O)(=O)c3ccc(F)cc3)ccc2O[C@H]1CN(C)Cc1ccc(Cl)c(Cl)c1
- AC50 [10]: 7.33 µM (active)
- AC50 [11]: 15.4 µM (active)
- AC50 [12]: 1.33 µM (active)
- AC50 (Paired box protein Pax-8): 3.12 µM (active)
- AC50 [13]: 1.52 µM (active)
- AC50 [14]: 45.6 µM (active)
- AC50 [15]: 27.8 µM (active)
- AC50 [16]: 12.6 µM (active)
- AC50 [17]: 49.4 µM (active)
